Measured values from ChEMBL document CHEMBL3638975, “Aminomethyl-4-imidazoles” (2013).
pKi: −log10 of the molar value.

Biological target: Trace amine-associated receptor 1 (Mus musculus, UniProt Q923Y8)
Test: Binding Assay: Radioligand binding assay: The radioligand [3H]-rac-2-(1,2,3,4-tetrahydro-1-naphthyl)-2-imidazoline was used at a concentration equal to the calculated Kd value of 60 nM to give a total binding at around 0.1% of the total added radioligand concentration, and a specific binding which represented approximately 70-80% of the total binding.

Trace amine-associated receptor 1, sequence (Q923Y8 whole entry): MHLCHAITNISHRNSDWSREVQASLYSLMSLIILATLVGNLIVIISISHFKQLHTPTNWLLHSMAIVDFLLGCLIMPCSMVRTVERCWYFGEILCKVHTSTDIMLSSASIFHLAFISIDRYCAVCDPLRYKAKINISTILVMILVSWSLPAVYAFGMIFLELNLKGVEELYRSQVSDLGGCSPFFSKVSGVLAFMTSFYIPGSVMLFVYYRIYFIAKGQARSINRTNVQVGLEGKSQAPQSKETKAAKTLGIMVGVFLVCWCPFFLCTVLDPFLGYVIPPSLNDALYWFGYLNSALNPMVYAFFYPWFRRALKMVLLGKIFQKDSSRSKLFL

Compound | pKi
CN(Cc1cnc[nH]1)c1cccc(F)c1 | 8.54
CCN(Cc1cnc[nH]1)c1ccc(CCc2ccc(Cl)cc2)cc1 | 8.14
